Consider six compounds from patent publication US7582602B2, “Hirulog-like peptide and gene therapy” (priority 2000, dated 2009).

Data set [1] can be described thus: Tail bleeding time in rats. It counts as in vivo. The note with it: for tail bleeding time during treatment versus control or basal levels: i.v. infusion. The method, then: (§1) The levels of aPTT in plasma were analyzed using MLA 1000C Coagamate XM system in Haematology Laboratory, Health Sciences Centre, Winnipeg. For the evaluation of bleeding time, 1 mm of tail tip was removed using a razor blade. Resultant wound was gently blotted with filter paper immediately after the cut and each 30-second thereafter until bleeding stopped. Periods between cutting and no blood blotted onto filter paper were defined as bleeding time (Ishiwata S et al, 1997, 20).

Data set [2] in a line: Induction of antibodies in rabbits. To be noted: rabbit, in vivo. The method, then: Relationship between HLP concentrations and vascular response. The relationship between plasma concentrations and the anti-restenosis effect of HLP is analysed. Polyclonal antibodies against HLP-KLH conjugate were raised in rabbits by the applicants group. The antibodies specifically recognize HLP in plasma proteins using Western blotting analysis. A competitive immunoassay was developed to measure plasma levels of HLP. Relationship between the effect of HLP on restenosis and its blood concentrations is analysed, which helps evaluate the efficacy of HLP and the design of a proper regimen for HLP treatment to prevent restenosis.
Effect of HLP on immune reactions. Since HLP is a peptide, it potentially induces immune reactions. HLP is a weak antigen. […] The possibility of HLP induces immune reactions in rabbits has not been excluded. Blood is withdrawn four weeks or six months after angioplasty and treatment with HLP, its analogues or saline, and determine the levels of serum C-reactive protein (Clinical Chemistry). Antibodies against HLP in blood are detected by immunodiffusion. Allergic reaction to HLP is monitored during and after the treatment.

A short description of the next data set: aPTT in rabbits. To be noted: HLP treated rabbits. It counts as in vivo. The method, then: (§2) Influence of HLP on coagulation and haemorrhage. The levels of aPTT and microvascular bleeding time is determined in atherosclerotic rabbits receiving HLP, heparin, hirulog-1 or saline. The effects of optimized HLP treatment on coagulation and haemorrhage is also be examined in a group of uninjured rabbits on regular diet (n=10). The levels of aPTT is determined in blood withdrawn at 15 minutes after the start of the infusions using MLA Coagamate XM system in Haematology Laboratory. Microvascular bleeding time is determined by bleeding from a cut on ear at 1 minutes after the initiation of infusion as previously described (Blajchman et al, 1979). Incidence of bleeding complications in rabbits with various treatments is recorded. Autopsy is applied to every animal, including unexpected death, to examine the sign of haemorrhage in various organs and tissues.
Restenosis is responsible for the 30-40% long term failure rate following coronary revascularization. Thrombin inhibitors have been considered as one type of potential drug for the prevention of restenosis. […] The experiment was designed to examine the effect of HLP on restenosis of carotid arteries in atherosclerostic rabbits. Right carotid arteries of male New Zealand rabbits were subjected to air dessication. […]

The nature of data set [3]: Activated partial thromboplastin time (aPTT) in rats. Format: in vivo. To be noted: for aPTT (second): mean±SD, n=4. The method, then: Quantitative thrombin time (QTT) and activated partial thromboplastin time (aPTT): Plasma levels of hirulog-1 were estimated using QTT as previously described (Safian R D et al, 1990). Synthesized hirulog-1 (>90% of purity) was used as standard. The levels of aPTT in plasma were analyzed using a MLA 1000C Coagamate XM system in Haematology Laboratory, Health Sciences Centre, Winnipeg.
as §1

The nature of data set [4]: Bleeding complications and side effects in rabbits. The note with it: HLP 0.8 mg/kg/h for four hours. It counts as in vivo. The method, then: as §2
Impact of HLP on liver, kidney and myeloid functions. Peripheral blood is withdrawn before sacrifice from ear vein of normal or atherosclerotic rabbits with and without treatments for analysing complete blood counts, serum albumin, alanine transaminase and blood urea nitrogen (analysed in Dept of Clinical Chemistry) to determine the influence of HLP on liver, kidney and myeloid functions. HLP concentrations in blood is analysed to examine the relationship between blood concentrations and possible toxic effects of HLP. […]

Data set [5] in a line: Haemorrhage, toxicity, liver and kidney function in rats. Format: in vivo.
A further data set has as its target T1, α-thrombin (Homo sapiens, UniProt P00734).
T1 construct: using α-thrombin and spectrozyme (American Diagnostica Inc., Greenwich, Conn.) as a substrate for thrombin
Kind of data set: Inhibition of enzymatic activity of thrombin (spectrozyme substrate). The note with it: spectrozyme as substrate, relative to hirulog-1. Format: biochemical. From the text:
HLP keeps the sequence of the active sites of hirulog-1. The amino-terminal tail of HLP contains a region which is homology to a distal portion of the extracellular domain of the thrombin receptor. This region of HLP is structurally distinct from hirulog-19-20 (or HLP20-31) which aims the anion binding exosite of thrombin (Carmeliet P et al, 1997). HLP provides double-site of inhibition on the binding of thrombin to the thrombin receptor, which can more effectively reduce the activation of the […] and the cellular effects of thrombin. In addition, the amino-terminal sequence of HLP can affect the interaction of the inhibitor with the active site of thrombin in a manner different from hirulog-1. This structural difference between HLP and hirulog-1 on their amino terminal can partially explain the lower inhibition of HLP on coagulation. The amino terminal of HLP can be slowly cleaved by thrombin after the formation of complex with thrombin as hirulog-1 (Buchanan M R et al, 1999), which prevents the complete consumption of thrombin.

The next data set has as its system baboon aortic SMC. Kind of data set: Thrombin-induced 3H-thymidine incorporation assay. Format: cell-based. To be noted: thrombin 10 U/ml. The method, then:
Baboon aortic SMCs (seed cells provided by Dr. A. W. Clowes, University of Washington, Seattle) were grown as previously described (Ishiwata S et al, 1999) and seeded in 12-well plates to sub-confluence. Sub-confluent cells were incubated with serum-free medium for 48 hours. Quiescent SMCs were stimulated with medium containing 1% fetal calf serum and 10 U/ml of thrombin in the absence and presence of HLP for 4 hours. The incubation was continued following the replacement of fresh medium supplemented with 10% serum in the absence of thrombin or its inhibitor for 14 hours. Finally, SMCs were incubated with 0.1 μCi/ml of 3H-thymidine (NEN, Boston, Mass.) in medium containing 10% of serum for 6 hours. At the end of the incubation, the cells were thoroughly washed with PBS then 5% ice-cold trichloroacetic acid, and harvested in 0.25 N NaOH (Safian R D et al, 1990). Radioactivity in aliquots of cell lysate was analyzed in scintillation counter. 3H-Thymidine incorporation was assessed by radioactivity in cell lysates following adjustment with cellular proteins in each well.
(Incorporation of labelled thymidine or its analogues reports DNA synthesis.)

The conditions of data set [6]: human, in vivo; cited from earlier work.
Data set [7] concerns hirulog-like peptide (HLP).
Chain of hirulog-like peptide (HLP) (chain, as listed by the source): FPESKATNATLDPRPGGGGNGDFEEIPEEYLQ
Where [8] appears, read: rats, 6 months after HLP treatment.
[9] abbreviates: tail, heparin 50 U/kg/h, hirulog-1 1 mg/kg/h, HLP 1.6 mg/kg/h [HLP(1.6)], 10 minutes after initiation of infusion, mean±SD, n=4.
The mark [10] stands for this setting: balloon injured rats, heparin 50 U/kg/h, hirulog-1 1 mg/kg/h, HLP 1.6 mg/kg/h [HLP(1.6)], 5 minutes after start of infusion.
Where [11] appears, read: rats, 6 months after HLP 1.6 mg/kg/h for 4 hours.

Entries after “also recorded” stand apart in the source; their conditions may differ.

With `CC[C@H](C)[C@H](NC(=O)[C@H](CCC(=O)O)NC(=O)[C@H](CCC(=O)O)NC(=O)[C@H](Cc1ccccc1)NC(=O)[C@H](CC(=O)O)NC(=O)CNC(=O)[C@H](CC(N)=O)NC(=O)CNC(=O)CNC(=O)CNC(=O)CNC(=O)[C@@H]1CCCN1C(=O)[C@H](CCCNC(=N)N)NC(=O)[C@@H]1CCCN1C(=O)[C@H](CC(=O)O)NC(=O)[C@H](CC(C)C)NC(=O)[C@@H](NC(=O)[C@H](C)NC(=O)[C@H](CC(N)=O)NC(=O)[C@@H](NC(=O)[C@H](C)NC(=O)[C@H](CCCCN)NC(=O)[C@H](CO)NC(=O)[C@H](CCC(=O)O)NC(=O)[C@@H]1CCCN1C(=O)[C@@H](N)Cc1ccccc1)[C@@H](C)O)[C@@H](C)O)C(=O)N1CCC[C@H]1C(=O)N[C@@H](CCC(=O)O)C(=O)N[C@@H](CCC(=O)O)C(=O)N[C@@H](Cc1ccc(O)cc1)C(=O)N[C@@H](CC(C)C)C(=O)N[C@@H](CCC(N)=O)C(=O)O` [HLP], in data set [1] (setting [8]), the “tail bleeding time 6 months after treatment versus controls” value is listed as “No significant change; also recorded: No significant difference”. In data set [1] (rats), the “tail bleeding time during treatment versus control or basal levels” value is recorded as “did not cause haemorrhage, the elongation of aPTT or bleeding time; also recorded: not significantly different from vehicle controls; also recorded: did not prolong aPTT or bleeding time”. The “Bleeding time (min)” value was 16.50 ± 1.58+x min in [1] (tail, HLP 3.2 mg/kg/h [HLP(3.2)], 10 minutes after initiation of infusion, mean±SD, n=4) and 16.37 ± 1.55+x min in data set [1] (setting [9]). Besides, in data set [2], the “antigenicity / induction of detectable antibodies in rabbits” value is “weak antigen”. In addition, the “aPTT in rabbits versus saline controls” value in the data set “aPTT in rabbits” is “did not significantly change; also recorded: not significantly prolonged”. For the same compound, the “aPTT (second)” value in [3] (HLP 3.2 mg/kg/h [HLP(3.2)], 5 minutes after start of infusion) is 19.80 ± 1.65++xx second; in data set [3] (setting [10]), 20.80 ± 3.24++xx second. Also, the “aPTT / coagulation activity during treatment versus control or basal levels” value in [3] (rats, i.v. infusion) is “close to that infused with saline; also recorded: did not cause haemorrhage, the elongation of aPTT; also recorded: not significantly different from vehicle controls; also recorded: did not significantly differ; also recorded: did not prolong aPTT or bleeding time; also recorded: did not significantly alter coagulation activity”. Besides, the “HLP treated rabbits that suffered from bleeding complications” value in data set [4] is given as “None”. Besides, in data set [5] (previous experiments), the “toxic effect in rats” value is reported as “does not cause evident toxic effect”. Moreover, the “alanine transaminase versus control group” value in data set [5] (setting [11]) is “No significant difference”. Also, the “blood urea nitrogen versus control group” value in data set [5] (setting [11]) is “No significant difference”. For the same compound, the “liver and kidney functions” value in [5] (setting [8]) was “No significant change”. In addition, in data set [5] (rats, heparin 50 U/kg/hours, HLP 1.6-3.2 mg/kg/hours), the “haemorrhage / death from haemorrhage during infusion” value is on record as “did not cause haemorrhage”. In addition, the “Ki on the enzymatic activity of thrombin, compared with hirulog-1” value on α-thrombin is recorded as “two orders of magnitude greater; also recorded: two orders of magnitude higher”.
Take `CC[C@H](C)[C@H](NC(=O)[C@H](CCC(=O)O)NC(=O)[C@H](CCC(=O)O)NC(=O)[C@H](Cc1ccccc1)NC(=O)[C@H](CC(=O)O)NC(=O)CNC(=O)[C@H](CC(N)=O)NC(=O)CNC(=O)CNC(=O)CNC(=O)CNC(=O)[C@@H]1CCCN1C(=O)[C@H](CCCNC(=N)N)NC(=O)[C@@H]1CCCN1C(=O)[C@H](N)Cc1ccccc1)C(=O)N1CCC[C@H]1C(=O)N[C@@H](CCC(=O)O)C(=O)N[C@@H](CCC(=O)O)C(=O)N[C@@H](Cc1ccc(O)cc1)C(=O)N[C@@H](CC(C)C)C(=O)O` [Hirulog-1, reference compound]: the “tail bleeding time during treatment versus control or basal levels” value in data set [1] (rats) is listed as “significantly prolonged; also recorded: significantly elongated”. For the same compound, the “Bleeding time” value in data set [1] (setting [9]) came out at 21.88 ± 1.55 min. In addition, the “aPTT raised over basal levels” value in data set [3] (1 minute after injection of 1 mg/kg, uninjured and balloon injured rats) is given as 3- to 4 fold. For the same compound, the “aPTT (second)” value in [3] (setting [10]) is given as 52.38 ± 2.84**+ second. Further, the “prolongation of aPTT during infusion” value in data set [3] (heparin 50 U/kg/h, hirulog-1 1 mg/kg/h, 5 minutes after start of infusion) is 2- to 3 fold. Moreover, the “aPTT / coagulation activity during treatment versus control or basal levels” value in data set [3] (rats, i.v. infusion) is on record as “significantly elongated”. Besides, the “time after treatment beyond which aPTT was normalized” value in [3] (single injection of 1 mg/kg) was above 30 min. Moreover, in data set [3] (within 15 minutes after single injection of 1 mg/kg), the “aPTT versus basal levels” value is given as “higher than corresponding basal levels”.
In the case of Heparin [reference compound], the “aPTT / coagulation activity during treatment versus control or basal levels” value in [3] (rat, in vivo, iv) is reported as “greatly increased”.
Consider Thrombin, for which the “increase of 3H-thymidine incorporation” value in the data set with baboon aortic SMC came to 43%.
Regarding hirudin, in [6], the “frequency of major bleeding” value is 6%-7% and the “incidence of major bleeding complications at non-cranial sites” value was 7%.
As to α-thrombin, the “thrombin-induced 3H-thymidine incorporation in baboon aortic SMC” value in data set [7] is “Treatment with 20 µM HLP significantly reduced thrombin-induced increase in 3H-thymidine incorporation in SMC (p<0.05) compared to cells treated with thrombin only”.
